Experimental data: ChEMBL document CHEMBL4359816, “Discovery and Optimization of Quinolinone Derivatives as Potent, Selective, and Orally Bioavailable Mutant Isocitrate Dehydrogenase 1 (mIDH1) Inhibitors” (J Med Chem, 2019); call rule not given here

Columns and labels:
[1] = target: Isocitrate dehydrogenase [NADP] cytoplasmic (Homo sapiens, UniProt O75874, R132C); assay: Inhibition of IDH1 R132C mutant in human HCT116 cells assessed as reduction in 2-HG levels after 24 hrs by RapidFire high-throughput mass spectrometry assay; format: cell-based
[2] = Clearance in rat at 1 mg/kg, iv or 5 mg/kg, po; format: ADME, organism-based; conditions: in vivo
[3] = Free drug concentration in plasma of po dosed BALB/c nude mouse xenografted with human HCT116 harboring R132C mutant administered at 12 hrs intervals and measured after 4 to 24 hrs post last dose; format: ADME, organism-based; conditions: in vivo
[4] = Octanol/aqueous buffer partition coefficient, log D of the compound at pH 7.4; format: physicochemical
[5] = Efflux ratio of apparent permeability from basolateral side to apical side over apical side to basolateral side in human Caco2 cells; format: ADME, cell-based; conditions: Caco-2
[6] = target: Isocitrate dehydrogenase [NADP], mitochondrial (Homo sapiens, UniProt P48735, R172K); assay: Inhibition of IDH2 R172K mutant (unknown origin)
[7] = target: CYP3A4 (Homo sapiens, UniProt P08684); assay: Inhibition of CYP3A4 (unknown origin) at 10 uM relative to control; format: ADME
[8] = Cmax in rat at 1 mg/kg, iv or 5 mg/kg, po; format: ADME, organism-based; conditions: in vivo
[9] = Apparent permeability of the compound across basolateral side to apical side in human Caco2 cells; format: ADME, cell-based; conditions: Caco-2
[10] = system: Mus musculus; format: functional; conditions: BALB/c, HCT-116, po
[11] = Metabolic stability in mouse liver microsomes assessed as compound remaining after 30 mins; format: ADME, Microsome; conditions: read-out: Stability
[12] = target: Isocitrate dehydrogenase [NADP] cytoplasmic (Homo sapiens, UniProt O75874, R132G); assay: Inhibition of human Myc-DDK-tagged IDH1 R132G mutant expressed in human U87MG cells assessed as reduction in 2-HG levels after 24 hrs by RapidFire high-throughput mass spectrometry assay; format: cell-based
[13] = Protein binding in mouse plasma assessed as unbound fraction; format: ADME, cell-free
[14] = Clearance in mouse at 1 mg/kg, iv or 5 mg/kg, po; format: ADME, organism-based; conditions: in vivo
[15] = system: MDR1 (P-gp); assay: Apparent permeability from basolateral side to apical side in MDCK cells harboring MDR1 (unknown origin); format: ADME, cell-based, Canis lupus familiaris; conditions: dog
[16] = target: Cytochrome P450 3A4 (Homo sapiens, UniProt P08684); assay: Time dependent inhibition of CYP3A4 (unknown origin) at <5 uM using testosterone as substrate; format: ADME
[17] = fAUC (infinity) in mouse at 1 mg/kg, iv or 5 mg/kg, po; format: ADME, organism-based; conditions: in vivo
[18] = Half-life in mouse at 1 mg/kg, iv or 5 mg/kg, po; format: ADME, organism-based; conditions: in vivo
[19] = target: Isocitrate dehydrogenase [NADP] cytoplasmic (Homo sapiens, UniProt O75874); assay: Inhibition of wild-type IDH1 (unknown origin) by NADPH fluorescence based assay
[20] = Metabolic stability in rat liver microsomes assessed as compound remaining after 30 mins; format: ADME, Microsome; conditions: read-out: Stability
[21] = Oral bioavailability in rat at 5 mg/kg; format: ADME, organism-based; conditions: in vivo
[22] = fAUC (infinity) in dog at 0.5 mg/kg, iv; format: ADME, organism-based, Canis lupus familiaris; conditions: in vivo
[23] = Apparent permeability of the compound across apical side to basolateral side in human Caco2 cells; format: ADME, cell-based; conditions: Caco-2
[24] = Protein binding in dog plasma; format: ADME, cell-free, Canis lupus familiaris; conditions: read-out: PPB (converted)
[25] = Permeability of the compound by PAMPA; format: ADME; conditions: read-out: permeability
[26] = Metabolic stability in human liver microsomes assessed as compound remaining after 30 mins; format: ADME, Microsome; conditions: read-out: Stability
[27] = Protein binding in human plasma; format: ADME, cell-free; conditions: read-out: PPB (converted)
[28] = Oral bioavailability in mouse at 5 mg/kg; format: ADME, organism-based; conditions: in vivo

Chain of Isocitrate dehydrogenase [NADP] cytoplasmic (Homo sapiens, UniProt O75874) (O75874 whole entry): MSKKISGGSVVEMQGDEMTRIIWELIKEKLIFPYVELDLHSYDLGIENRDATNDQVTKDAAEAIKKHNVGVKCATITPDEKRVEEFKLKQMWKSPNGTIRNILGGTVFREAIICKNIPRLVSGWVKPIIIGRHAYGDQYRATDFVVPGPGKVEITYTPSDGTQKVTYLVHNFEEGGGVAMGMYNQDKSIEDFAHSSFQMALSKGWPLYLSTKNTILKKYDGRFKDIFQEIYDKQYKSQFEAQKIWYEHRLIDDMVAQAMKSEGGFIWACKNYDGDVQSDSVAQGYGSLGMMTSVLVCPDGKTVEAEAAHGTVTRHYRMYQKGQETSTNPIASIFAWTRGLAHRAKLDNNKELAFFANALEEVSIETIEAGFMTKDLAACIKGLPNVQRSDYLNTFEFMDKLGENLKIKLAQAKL
Chain of Isocitrate dehydrogenase [NADP] cytoplasmic (Homo sapiens, UniProt O75874, R132C) (O75874 2-414 R132C limits assumed): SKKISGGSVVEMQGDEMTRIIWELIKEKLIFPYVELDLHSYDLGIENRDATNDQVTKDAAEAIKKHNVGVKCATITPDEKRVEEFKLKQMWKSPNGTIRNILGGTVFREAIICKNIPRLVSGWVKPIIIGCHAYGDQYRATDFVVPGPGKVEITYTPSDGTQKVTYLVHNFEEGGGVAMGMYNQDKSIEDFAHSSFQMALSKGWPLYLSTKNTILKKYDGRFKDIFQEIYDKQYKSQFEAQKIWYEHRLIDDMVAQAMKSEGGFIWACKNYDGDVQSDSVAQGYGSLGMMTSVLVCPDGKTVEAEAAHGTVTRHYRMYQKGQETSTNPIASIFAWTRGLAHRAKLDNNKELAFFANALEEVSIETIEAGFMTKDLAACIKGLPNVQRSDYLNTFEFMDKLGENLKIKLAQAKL
Chain of Isocitrate dehydrogenase [NADP] cytoplasmic (Homo sapiens, UniProt O75874, R132G) (O75874 2-414 R132G limits assumed): as the sequence (O75874 2-414 R132C limits assumed) above, with C131G counted along it
Chain of Isocitrate dehydrogenase [NADP], mitochondrial (P48735 40-452 R172K limits assumed): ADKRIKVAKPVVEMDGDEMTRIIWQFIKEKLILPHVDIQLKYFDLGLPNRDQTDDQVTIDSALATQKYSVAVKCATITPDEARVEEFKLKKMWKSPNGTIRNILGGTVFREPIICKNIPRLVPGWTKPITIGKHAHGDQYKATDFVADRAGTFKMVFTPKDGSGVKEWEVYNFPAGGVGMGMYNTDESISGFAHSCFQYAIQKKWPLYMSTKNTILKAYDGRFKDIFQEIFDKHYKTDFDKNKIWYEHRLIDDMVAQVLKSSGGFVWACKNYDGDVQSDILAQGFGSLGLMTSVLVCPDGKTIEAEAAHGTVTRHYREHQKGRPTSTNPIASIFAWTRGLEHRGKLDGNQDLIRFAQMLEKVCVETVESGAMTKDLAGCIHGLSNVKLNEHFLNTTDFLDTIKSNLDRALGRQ
Chain of CYP3A4 (P08684 whole entry): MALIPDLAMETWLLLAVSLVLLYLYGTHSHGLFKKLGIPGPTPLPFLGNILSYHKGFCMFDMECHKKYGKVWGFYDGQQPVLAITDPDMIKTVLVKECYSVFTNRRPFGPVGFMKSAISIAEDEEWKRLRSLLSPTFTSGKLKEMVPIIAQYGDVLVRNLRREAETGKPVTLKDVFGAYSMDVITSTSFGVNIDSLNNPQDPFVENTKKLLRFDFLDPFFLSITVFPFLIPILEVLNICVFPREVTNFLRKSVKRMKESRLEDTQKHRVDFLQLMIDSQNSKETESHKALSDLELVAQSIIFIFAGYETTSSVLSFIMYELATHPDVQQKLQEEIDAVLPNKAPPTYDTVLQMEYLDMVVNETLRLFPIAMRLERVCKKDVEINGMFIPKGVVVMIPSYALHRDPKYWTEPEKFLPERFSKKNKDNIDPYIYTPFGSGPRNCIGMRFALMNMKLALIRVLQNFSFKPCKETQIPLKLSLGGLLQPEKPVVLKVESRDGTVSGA
Chain of Cytochrome P450 3A4 (P08684 whole entry): as above

IC50 [1]: 0.233 µM
clearance [2]: 8.6 mL/min/kg
Drug uptake(free) [3]: Dose-dependent effect
logD [4]: 2.68
efflux ratio [5]: 1
IC50 [6]: 33.8 µM
inhibition at 10 µM [7]: 15.4%
Cmax [8]: 3.8 µM
Papp B→A [9]: 8.64 ×10⁻⁶ cm/s
remaining at 0.5 h [11]: 100 to 106%
IC50 [12]: 0.12 µM
fraction unbound [13]: 0.019
clearance [14]: 3.3 mL/min/kg
Papp B→A [15]: 9.93 ×10⁻⁶ cm/s
TDI [16]: Not Active
fAUC [17]: 2.06 µM·h
half-life [18]: 10 h
IC50 [19]: 35 µM
remaining at 0.5 h [20]: 94 to 100%
bioavailability [21]: 81%
fAUC [22]: 0.123 µM·h
Papp A→B [23]: 8.66 ×10⁻⁶ cm/s
fraction unbound [24]: 0.0369
Papp [25]: 18 ×10⁻⁶ cm/s
remaining at 0.5 h [26]: 100 to 108%
fraction unbound [27]: 0.019
bioavailability [28]: 130%
SMILES: COc1nc(N[C@@H](C)c2cc3cc(Cl)ccc3[nH]c2=O)ncc1C#N
inhibition in vivo at 25 mg/kg [10]: > 90%
